Assay results: patent publication US9340537B2, “Benzamide derivatives for inhibiting the activity of ABL1, ABL2 and BCR-ABL1” (NOVATIS AG, priority 2012, dated 2016)

Tests used:
ABL1 (64-515) [1] = target: T1, ABL1 (64-515) (Homo sapiens (Human), UniProt P00519); experiment: Caliper ABL1 (64-515) microfluidic mobility shift kinase assay; conditions: read-out: Caliper ABL1 (64-515) IC50
[2] = test system: Ba/F3-BCR-ABL1-T315I cells; experiment: Proliferation assay Ba/F3-BCR-ABL1-T315I cells; type: cell-based, murine; conditions: Mus musculus; 48 hours, Britelite luminescence; read-out: Ba/F3-BCR-ABL1-T315I IC50
Description: (§1) The murine bone marrow-derived cell line Ba/F3 was used to generate the appropriate cell line models. […] These cells are referred to as Ba/F3-WT.
(§2) To generate Ba/F3 cells that depend on BCR-ABL1 expression for growth and survival, Ba/F3 cells were engineered to express BCR-ABL1 using retroviral transduction with a MSCV based retroviral vector containing a p210 BCR-ABL1expression cassette. […] These cells are referred to as Ba/F3-BCR-ABL-WT. […] These cells are referred to as Ba/F3-BCR-ABL-T315I.
(§3) Ba/F3-WT cells were maintained in RPMI1640 media with L-glutamine, HEPES (Lonza), 10% FBS (Gibco) and 5 ng/ml IL-3 (Calbiochem). Ba/F3-BCR-ABL1-WT cells and Ba/F3-BCR-ABL1-T315I cells were maintained in RPMI1640 media with L-glutamine, HEPES (Lonza) and 10% FBS (Gibco).
(§4) For each cell line, the cell density was adjusted to 50 000 cells/mL and 50 μL (2500 cells) added per well of a 384-well assay plate.
(§5) Test compounds were resuspended in DMSO at a concentration of 10 mM. A serial three-fold dilution of each compound with DMSO was performed in 384-well plates using the Janus Liquid Dispenser (PerkinElmer). Compound was delivered to the assay plates containing 2500 cells in a 50 μL volume via Acoustic delivery from an ATS-100 (EDC).
(§6) Cells were incubated at 37° C. in a humidified environment with 5% carbon dioxide for 48 hours. Britelite plus solution (Perkin Elmer) was prepared according to the manufacturer's instructions and 25 μL added to each well of the assay plate. […] The degree of luminescence correlates with the number of cells in each well. The effect of each inhibitor concentration can therefore be calculated and IC50 values generated.

Ba/F3-BCR-ABL1-WT cells = experiment: Proliferation assay Ba/F3-BCR-ABL1-WT cells; type: cell-based, murine; conditions: Mus musculus; 48 hours, Britelite luminescence; read-out: Ba/F3-BCR-ABL1-WT IC50
Description: as §1, §2, §3, §4, §5, §6

ABL1 (64-515) [3] = target: T1, ABL1 (64-515); experiment: Radio ABL1 (64-515) radiometric filter-binding kinase assay; type: biochemical; conditions: 20 μM ATP
Protocol: Pre-incubation of enzyme with compounds (when stated) was performed by exposing the enzyme to compounds prior to addition of the substrate mixture (ATP and/or peptide substrate). […] Filter-plates were washed 3× with 0.5% H3PO4, followed by addition of 30 μL scintillation cocktail (Microscint, Perkin Elmer) per well and then analysed in a TopCount NXT scintillation counter (Perkin Elmer). Results were expressed as IC50 values.

BCR-ABL1+KCL-22 cells = experiment: Acquired resistance in BCR-ABL1+KCL-22 cells in vitro; type: cell-based; conditions: single agent, cells treated every 3-4 days

T1 sequence (P00519 64-515): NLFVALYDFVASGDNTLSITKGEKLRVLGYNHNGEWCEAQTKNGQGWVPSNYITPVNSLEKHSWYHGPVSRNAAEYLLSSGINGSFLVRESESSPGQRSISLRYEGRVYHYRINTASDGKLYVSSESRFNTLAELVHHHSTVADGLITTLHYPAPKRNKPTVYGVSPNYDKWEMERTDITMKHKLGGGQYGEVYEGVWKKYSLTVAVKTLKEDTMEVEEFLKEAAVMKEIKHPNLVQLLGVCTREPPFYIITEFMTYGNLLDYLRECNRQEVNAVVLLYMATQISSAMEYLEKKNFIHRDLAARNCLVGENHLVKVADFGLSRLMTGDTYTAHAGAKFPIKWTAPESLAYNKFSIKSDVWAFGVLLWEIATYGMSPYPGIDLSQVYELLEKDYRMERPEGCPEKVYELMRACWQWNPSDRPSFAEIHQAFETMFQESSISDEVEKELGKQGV

| Compound | IC50 (ABL1 (64-515) [1]) | IC50 [2] | IC50 (Ba/F3-BCR-ABL1-WT cells) | IC50 (ABL1 (64-515) [3]) | time until acquired resistance (BCR-ABL1+KCL-22 cells) |
| --- | --- | --- | --- | --- | --- |
| O=C(Nc1ccc(OC(F)(F)F)cc1)c1cnc(N2CC[C@@H](O)C2)c(-c2ccc[nH]2)c1 [Example 6, (R)-6-(3-Hydroxypyrrolidin-1-yl)-5-(1H-pyrrol-2-yl)-N-(4-(trifluoromethoxy)phenyl)nicotinamide] | 1.3 nM | 106 nM | 4.5 nM | 9 nM | – |
| N#Cc1ccc(-c2cc(C(=O)Nc3ccc(OC(F)(F)F)cc3)cnc2N2CC[C@@H](O)C2)[nH]1 [Example 30, (R)-5-(5-Cyano-1H-pyrrol-2-yl)-6-(3-hydroxypyrrolidin-1-yl)-N-(4-(trifluoromethoxy)phenyl)nicotinamide] | 0.7 nM | 22 nM | 1.1 nM | 6 nM | – |
| Cc1cn(-c2cc(NC(=O)c3ccc(C)c(Nc4nccc(-c5cccnc5)n4)c3)cc(C(F)(F)F)c2)cn1 [nilotinib] | – | – | – | – | 18 to 21 days |
| O=C(Nc1ccc(OC(F)(F)Cl)cc1)c1cnc(N2CC[C@@H](O)C2)c(-c2ccc[nH]2)c1 [Example 22, (R)—N-(4-(Chlorodifluoromethoxy)phenyl)-6-(3-hydroxypyrrolidin-1-yl)-5-(1H-pyrrol-2-yl)nicotinamide] | < 0.13 nM | 27 nM | 0.8 nM | 2.4 nM | – |
| CC1(O)CN(c2ncc(C(=O)Nc3ccc(OC(F)(F)F)cc3)cc2-c2ncc[nH]2)C1 [Example 69, 6-(3-Hydroxy-3-methylazetidin-1-yl)-5-(1H-imidazol-2-yl)-N-(4-(trifluoromethoxy)phenyl)nicotinamide] | 0.2 nM | 395 nM | 24.3 nM | 0.2 nM | – |
| O=C(Nc1ccc(OC(F)(F)F)cc1)c1cnc(N2CC[C@@H](O)C2)c(-c2cncs2)c1 [Example 10, (R)-6-(3-Hydroxypyrrolidin-1-yl)-5-(thiazol-5-yl)-N-(4-(trifluoromethoxy)phenyl)nicotinamide] | 0.5 nM | 50 nM | 2.5 nM | 5.3 nM | – |
| N#Cc1ccc(-c2cc(C(=O)Nc3ccc(OC(F)(F)Cl)cc3)cnc2N2CC[C@@H](O)C2)[nH]1 [Example 45, (R)—N-(4-(Chlorodifluoromethoxy)phenyl)-5-(5-cyano-1H-pyrrol-2-yl)-6-(3-hydroxypyrrolidin-1-yl)nicotinamide] | 0.7 nM | 13 nM | 0.6 nM | 4 nM | – |
| O=C(Nc1ccc(OC(F)(F)Cl)cc1)c1cnc(N2CCCC3(CCN3)C2)c(-c2ccn[nH]2)c1 (stereo not drawn) [Example 61, N-(4-(Chlorodifluoromethoxy)phenyl)-5-(1H-pyrazol-5-yl)-6-(1,6-diazaspiro[3.5]nonan-6-yl)nicotinamide] | 4.5 nM | 1040 nM | 49.3 nM | 3 nM | – |
| O=C(Nc1ccc(OC(F)(F)Cl)cc1)c1cnc(N2C[C@H](O)[C@@H](F)C2)c(-c2ccn[nH]2)c1 (relative stereo) [Example 75, N-(4-(Chlorodifluoromethoxy)phenyl)-6-(trans-3-fluoro-4-hydroxypyrrolidin-1-yl)-5-(1H-pyrazol-5-yl)nicotinamide] | 0.5 nM | 17 nM | 1.2 nM | 3 nM | – |
